Assay [1] deals with BaF3. As to the kind of experiment: Antiproliferative activity against mouse BaF3 cells harboring wild-type FGFR2 assessed as reduction in cell proliferation measured after 72 hrs by MTS assay. The class given is functional, cell-based. Conditions: BaF3, 72 h. For orientation: Formazan colour is commonly taken as a measure of viable cells.
The test system of assay [2] is BaF3. As to the kind of experiment: Antiproliferative activity against mouse BaF3 cells harboring wild-type FGFR1 assessed as reduction in cell proliferation measured after 72 hrs by MTS assay. Conditions: BaF3, 72 h. The class given is functional, cell-based.
The subject of assay [3] is BaF3. The experiment in a line: Antiproliferative activity against mouse BaF3 cells harboring FGFR2 V564M mutant assessed as reduction in cell proliferation measured after 72 hrs by MTS assay. The class given is functional, cell-based. Conditions: BaF3, 72 h.
For assay [4], the system named is BaF3. As to the kind of experiment: Antiproliferative activity against mouse BaF3 cells harboring wild-type FGFR4 assessed as reduction in cell proliferation measured after 72 hrs by MTS assay. The class given is functional, cell-based. To be noted: BaF3, 72 h.
Assay [5] relates to BaF3. The experiment in a line: Antiproliferative activity against mouse BaF3 cells harboring wild-type FGFR3 assessed as reduction in cell proliferation measured after 72 hrs by MTS assay. To be noted: BaF3, 72 h. The class given is functional, cell-based.
Assay [6] in a line: Inhibition of SRC T338M mutant (unknown origin). Further details: species or system Homo sapiens.

As a reminder, the EC50 is the midpoint of the concentration-response curve. Broadly, the IC50 is the midpoint of a concentration-inhibition curve.

Turning to `C=CC(=O)Nc1ccc(CN2C(=O)N(c3cc(OC)cc(OC)c3)Cc3cnc(Nc4ccc(N5CCN(C)CC5)cc4)nc32)cc1`, the EC50 is 1 nM with BaF3 [1]; 1 nM in the assay on BaF3 [2]; 58 nM with BaF3 [3]; 1 nM with BaF3 [4]; 1 nM with BaF3 [5].

`C=CC(=O)Nc1ccc(CN(C(=O)Nc2c(Cl)c(OC)cc(OC)c2Cl)c2cc(Nc3ccc(N4CCN(C)CC4)cc3)ncn2)cc1`: the EC50 with BaF3 [1] was found to be 1 nM; with BaF3 [2], 1 nM; in the assay with BaF3 [3], 64 nM; with BaF3 [4], 1 nM; in the assay on BaF3 [5], 1 nM.

`C=CS(=O)(=O)NCCC(=O)Nc1cccc(Nc2nccc(Nc3ncc(C(=O)Nc4c(C)cccc4Cl)s3)n2)c1` showed an IC50 in assay [6] of 44 nM.
